Assays:
[1] = test system: H460 non-small cell lung cancer xenografts; assay: Tumor growth of human lung cancer xenografts, intratumoral injection; assay type: in vivo, NOD/SCID mice
From the text: The inventors assessed the growth-inhibitory activity of hsa-miR-34a in human lung cancer xenografts grown in immunodeficient mice. Each 3×10^6 human H460 non-small cell lung cancer cells were mixed with BD Matrigel™, (BD Biosciences; San Jose, Calif., USA; cat. no. 356237) in a 1:1 ratio and subcutaneously injected into the lower back of 23 NOD/SCID mice (Charles River Laboratories, Inc.; Wilmington, Mass., USA). Once animals developed palpable tumors (day 11 post xenograft implantation), a group of six animals received intratumoral injections of each 6.25 μg hsa-miR-34a (Dharmacon, Lafayette, Colo.) formulated with the lipid-based siPORT™ amine delivery agent (Ambion, Austin, Tex.; cat. no. AM4502) on days 11, 14, and 17. A control group of six animals received intratumoral injections of each 6.25 μg negative control miRNA (NC; Dharmacon, Lafayette, Colo.), following the same injection schedule that was used for hsa-miR-34a. Given an average mouse weight of 20 g, this dose equals 0.3125 mg/kg. […] Caliper measurements were taken every 1-2 days, and tumor volumes were calculated using the formula, Volume=length×width×width/2, in which the length is greater than the width. Average tumor volumes, standard deviations and p-values were calculated and plotted over time (FIG. 4).

[2] = test system: lung cancer cells A549, H522, H596, Calu-3, HCC2935, H1650, H460, and H226; assay: Alamar Blue proliferation assay, average over eight lung cancer cell lines; assay type: cell-based, human
From the text: The inventors assessed the therapeutic effect of hsa-miR-34a for lung cancer by using eight individual lung cancer cell lines. To measure cellular proliferation of lung cancer cells, the following non-small cell lung cancer (NSCLC) cells were used: cells derived from lung adenocarcinoma (A549, H522, Calu-3, HCC2935), cells derived from lung squamous cell carcinoma (H226), cell derived from lung adenosquamous cell carcinoma (H596), cells derived from lung bronchioalveolar carcinoma (H1650), and cells derived from lung large cell carcinoma (H460). Synthetic hsa-miR-34a (Pre-miR™-hsa-miR-34a, Ambion cat. no. AM17100) or negative control (NC) miRNA (Pre-miR™ microRNA Precursor Molecule-Negative Control #2; Ambion cat. no. AM17111) was delivered via lipid-based transfection into A549, H522, H596, Calu-3, HCC2935, H1650, H460 cells and via electroporation into H226 cells.
Lipid-based reverse transfections were carried out in triplicate according to a published protocol (Ovcharenko et al., 2005) and the following parameters: cells (5,000-12,000 per 96 well), 0.1-0.2 μl Lipofectamine™ 2000 (cat. no. 11668-019, Invitrogen Corp., Carlsbad, Calif., USA) in 20 μl OptiMEM (Invitrogen), 30 nM final concentration of miRNA in 100 μl. […]

[3] = test system: PPC-1 prostate cancer cells; assay: Long-term growth curve with repeated electroporation; assay type: cell-based, human; conditions: by day 22; 1.6 μM electroporated repeatedly
Procedure: (§1) To evaluate the therapeutic activity of hsa-miR-34a over an extended period of time, we conducted growth curve experiments in the presence of miRNA for up to 22 days. Since in vitro transfections of naked interfering RNAs, such as synthetic miRNA, are transient by nature and compromised by the dilution of the oligo during ongoing cell divisions, miRNA was administered at multiple time points (Bartlett et al. 2006; Bartlett et al. 2007). To accommodate miRNA delivery into a large quantity of cells, the inventors employed the electroporation method to deliver hsa-miR-34a or negative control miRNA into PPC-1, PC3, and Du145 human prostate cancer cells. Briefly, 1×10^6 PPC-1 or PC3 cells, or 0.5×10^6 Du145 cells were electroporated with 1.6 μM hsa-miR-34a or negative control using the BioRad Gene Pulser Xcell™ instrument (BioRad Laboratories Inc., Hercules, Calif., USA), seeded and propagated in regular growth medium. Experiments with PC3 and Du145 cells were carried out in triplicates. When the control cells reached confluence (days 4 and 11 for PPC-1; days 7 and 14 for PC3 and Du145), cells were harvested, counted and electroporated again with the respective miRNAs. To ensure similar treatment of both conditions as well as to accommodate exponential growth, the cell numbers used for the second and third electroporation were titrated down to the lowest count. The population doubling was calculated from these electroporation events using the formula PD=ln(Nf/N0)/ln 2 and adjusting for the fact that approximately 72% of newly seeded cells adhere to the plate. Cell counts were extrapolated and plotted on a linear scale (FIG. 6). Arrows represent electroporation days. Standard deviations are included in the graphs.

[4] = test system: Du145 prostate cancer cells; assay: as above; assay type: cell-based, human
Procedure: as §1

[5] = test system: PC3 prostate cancer cells; assay: as above; assay type: cell-based, human
Procedure: as §1

## hsa-miR-34a: synthetic miRNA; mature sequence UGGCAGUGUCUUAGCUGGUUGUU (MIMAT0000255; SEQ ID NO:1) (synthetic miRNA, chemistry not given here)
[1]; day 19, 6.25 μg intratumoral in siPORT amine on days 11, 14, 17, n=6
  average tumor volume: 196 mm^3
[1]; three intratumoral doses
  growth of established H460 lung tumors: robustly inhibited growth
[2]; average over eight lung cancer cell lines, relative to negative control miRNA
  average inhibition of cellular proliferation: 25.30%
[2]; lung cancer cell lines
  growth-inhibitory activity compared with etoposide: comparable to that of etoposide at concentrations ≧10 μM
[3]
  fate of PPC-1 cells in long-term culture: eliminated
[4]; Du145, day 19
  cells relative to cells electroporated with negative control miRNA: 6.9%
[4]; day 19, 1.6 μM electroporated repeatedly, relative to control cells (100%)
  inhibition of Du145 cell growth: 93.1%
[5]; PC3, day 21
  cells relative to cells electroporated with negative control miRNA: 2.8%
[5]; day 21, 1.6 μM electroporated repeatedly, relative to control cells (100%)
  inhibition of PC3 cell growth: 97.2%

Reference: US20090227533A1, “miR-34 Regulated Genes and Pathways as Targets for Therapeutic Intervention” (priority 2007, published 2009)
